Assay results taken from patent US8198507B2, “Transgenic or recombinant non-human mammals and their uses in screening psychoactive medicines” (Institut National de la Sante Et de la Recherche Medicale - …, priority 2000, dated 2012).

Tests used:
STOP KO (−/−) mice [1] = settings: STOP KO (−/−) mothers, short-term treatment (6 to 8 days before birth), 0.5 mg/kg/day in the drinking water, first day post-partum
Experimental: Post-partum females (second gestation) were reared individually from the beginning of their gestation. On the day of giving birth, the young mice were removed and kept in the warm for one hour. The mother was then removed from her usual cage and three newborns were each placed in a corner of this same cage, at a distance from the nest. Next, the mother was returned to her nest and the number of young mice reinstalled in the nest, over a period of 20 minutes, was evaluated.
The effect of anxiolytics (diazepam) and of neuro-leptics (chlorpromazine, haloperidol or clozapine) on the behavioral disorders of the STOP KO (−/−) mice was evaluated in the maternal behavior test as defined in example 3 (“reinstallation in the nest” test).
(§1) Haloperidol (Haldol^R, JANSSEN-CILAG), chlorpromazine (Largactil^R, RHONE-POULENC) and diazepam (Valium^R, ROCHE) were administered to the mice in the drinking water, at a dose of 0.5 mg/kg/day.
The effect of short-term administration (for 6 to 8 days from the 6th day preceding the birth) of anxiolytics (diazepam) and of neuroleptics (chlorpromazine, haloperidol or clozapine) on the behavioral disorders of the STOP KO (−/−) mice was evaluated in the “reinstallation in the nest” test.

STOP KO (−/−) mice [2] = assay: Survival of the newborns of treated STOP KO (−/−) mothers; assay type: in vivo; settings: short-term treatment (6 to 8 days before birth), 0.5 mg/kg/day
Experimental: The survival of the newborns is analyzed among the STOP KO (−/−) mice subjected to various treatments. The newborns are considered to be survivors when they are raised until weaning.
as §1

CN1C(=O)CN=C(c2ccccc2)c2cc(Cl)ccc21 [diazepam]
reinstallation of the young mice in the nest (STOP KO (−/−) mice [1]): slightly improved | survival of the young mice (STOP KO (−/−) mice [2]): no survival
